#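 96-well plates; 48 h exposure; 5 concentrations. Endpoints by linear interpolation between flanking doses. Not reached: highest tested concentration assigned. TGI is the concentration that stops growth completely.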 Where a SMILES comes first, the peptide text is derived from it. The star is where a group is joined. Boc = CC(C)(C)OC(=O)*
# Assays:
# Experiment in all cases: growth of human tumour cells (NCI), 48 h
# SW-620 colon = tested on: SW-620 colon
# UACC-62 melanoma = tested on: UACC-62 melanoma
# OVCAR-5 ovarian = tested on: OVCAR-5 ovarian
# MOLT-4 leukemia = tested on: MOLT-4 leukemia
# NCI-H460 lung = tested on: NCI-H460 lung
# NCI-H226 lung = tested on: NCI-H226 lung
# MALME-3M melanoma = tested on: MALME-3M melanoma
# LOX IMVI melanoma = tested on: LOX IMVI melanoma
# CCRF-CEM leukemia = tested on: CCRF-CEM leukemia
# T-47D breast = tested on: T-47D breast
SMILES,TGI (SW-620 colon) [µM],TGI (UACC-62 melanoma) [µM],TGI (OVCAR-5 ovarian) [µM],TGI (MOLT-4 leukemia) [µM],TGI (NCI-H460 lung) [µM],TGI (NCI-H226 lung) [µM],TGI (MALME-3M melanoma) [µM],TGI (LOX IMVI melanoma) [µM],TGI (CCRF-CEM leukemia) [µM],TGI (T-47D breast) [µM]
S=C(c1c[nH]c2ccccc12)N1CCN(c2ccccc2)CC1,> 100,> 100,> 100,> 100,> 100,> 100,87.4,> 100,> 100,–
CC1(C)C[C@H](O)[C@H](O)[C@]23C(=O)O[C@H](O)[C@H]2C(C=O)=CC[C@@H]13,> 100,> 100,–,> 100,> 100,> 100,> 100,> 100,> 100,> 100
N#C[C@@]12CCCC(=O)[C@@H]1[C@H]1CCC[C@H]12,45.2,58,25.7,55.9,32.8,47.6,32.3,31,57.4,41.3
CC[C@@]1(O)C(=O)OCc2c1cc1n(c2=O)Cc2c-1nc1ccccc1c2/C=N\NC(=O)C(N)Cc1cnc[nH]1 (stereo not given in full),> 100,1.22,> 54.6,0.243,4.8,16.5,> 87.1,3.37,15,> 100
CCOCC(NC(=O)C(CC(C)C)NC(=O)OC(C)(C)C)C(N)=O (stereo not drawn) (Boc-Leu-Ser(Et)-NH2; configuration not given here),3.27,> 100,> 100,> 100,–,> 100,> 100,> 100,> 100,> 100
CC(C)(C)OC(=O)Nc1cc(-c2ccccc2)co1,> 100,> 100,> 100,> 100,–,> 100,–,> 100,> 100,> 100
CN[C@@H](C)[C@H](OP(=O)(O)OC1[C@@H](O)[C@H](O)C(O)[C@H](O)[C@@H]1O)c1ccccc1 (stereo not given in full),> 100,> 100,> 100,> 100,> 100,> 100,> 100,–,> 100,> 100
O=C(N/N=C\c1ccc([N+](=O)[O-])cc1)c1ccccc1Nc1ccccc1C(=O)N/N=C/c1ccc([N+](=O)[O-])cc1,> 100,> 100,> 100,> 100,> 100,> 100,> 100,–,> 100,> 100
CC(C)(C)OC(=O)NC(Cc1ccc(OCc2ccccc2)cn1)C(=O)N1CCSCC1 (stereo not given),> 100,> 100,> 100,59.1,> 100,–,> 100,> 100,> 100,49.6
O=C1/C(=C/c2cccs2)NC(=S)N1CN1CCOCC1,> 100,> 100,> 100,> 100,–,> 100,–,> 100,> 100,–
COc1ccc(N=C2C(=Nc3ccc(OC)cc3)N(S(=O)(=O)c3ccccc3)C(=S)N2c2ccc(OC)cc2)cc1,> 100,> 100,> 100,> 100,–,> 100,–,–,–,> 100
Cc1ccc(Nc2sc(C)cc2C#N)c([N+](=O)[O-])c1,> 100,> 100,> 100,> 100,> 100,> 100,> 100,–,> 100,> 100
CCOC(=O)c1cc(=O)oc2c1N(C)c1ncccc1N2,> 100,> 100,> 100,> 100,> 100,> 100,–,> 100,–,> 100
CC(=O)NNC(=S)/N=C/c1c(O)cc(C)oc1=O,> 100,–,> 100,> 100,> 100,> 100,–,> 100,–,> 100
COc1ccc2c(c1)CCCN1CCc3cc(OC)c(OC)cc3C21 (stereo not given),> 100,> 100,> 100,> 100,–,> 100,> 100,> 100,> 100,> 100
Cn1c2ccccc2n2c(=O)c3cccnc3c(C#N)c12,> 100,–,> 100,> 100,> 100,30.1,> 100,> 100,–,> 100
O=c1c(-c2ccccc2Cl)coc2cc(F)ccc12,> 100,73.6,> 100,> 100,> 100,> 100,–,35.3,> 100,> 100
Nc1nc(N)c2nnn(C[C@H]3CC[C@@H](CO)C3)c2n1,> 100,> 100,> 100,> 100,> 100,> 100,> 100,> 100,> 100,–
O=C1CCCCC[C@]12SC[C@H]1CON=C12,> 100,71.7,> 100,> 100,> 100,> 100,> 100,> 100,> 100,–
C/C(=N\O)c1cccc(Nc2nc3ccccc3c3occc23)c1,–,5.22,30.7,32.9,21,16.5,28.9,33.2,31,44.7
O=C(NCCCCNCCCNC(=O)c1cc(-c2ccccc2)nc2ccccc12)c1cc(-c2ccccc2)nc2ccccc12,3.1,3.9,–,–,3.39,3.26,3.23,–,–,–
CC(NC(=O)C(N)CC(=O)O)NC(=O)N1CCOCC1 (stereo not given),> 100,> 100,> 100,> 100,> 100,> 100,> 100,> 100,> 100,–
COc1ccc(CCc2ccc(O)c(C(=O)O)c2)cc1OC,–,> 100,> 100,> 100,> 100,> 100,> 100,> 100,> 100,> 100

# Source: PubChem BioAssay (NCI)
